Test results taken from ChEMBL document CHEMBL2429867, “Generation by mutasynthesis of potential neuroprotectant derivatives of the bipyridyl collismycin A” (2013).

Species: Danio rerio
Assay: Neuroprotective activity in 3 days postfertilized zebrafish larvae assessed as reduction of all-trans retinoic acid-induced apoptosis at 1 uM after 24 hrs by fluorescence microscopy
Assay type: functional
Design: scale not given: the % may be the effect or the level left

| Compound | Activity [%] |
| --- | --- |
| COc1cc(-c2cccc(C)n2)nc(/C=N/O)c1SC | 40 |
| O=C(O)CCCCC1CCSS1 (stereo not drawn) [LIPOIC ACID, ALPHA] | 61 |
| COc1cc(-c2cc(C)ccn2)nc(/C=N/O)c1SC | 70 |
